Some results are limits rather than exact numbers.

For this test, the target named is Aurora B/INCENP (Homo sapiens, UniProt Q96GD4). Nature of the test: Determination of inhibition of AIK: Aurora B/INCENP direct fluorescence polarization (IMAP) assay. The class given is biochemical. The note with it: 10 uM ATP, 0.8 nM Aurora B/INCENP; values given as bins; read-out: IC50 of Exemplified Compounds Against AIK B. In general terms: Fluorescence polarisation rises when a labelled molecule tumbles more slowly, as on binding a larger partner.
Chain of Aurora B/INCENP (Q96GD4 whole entry): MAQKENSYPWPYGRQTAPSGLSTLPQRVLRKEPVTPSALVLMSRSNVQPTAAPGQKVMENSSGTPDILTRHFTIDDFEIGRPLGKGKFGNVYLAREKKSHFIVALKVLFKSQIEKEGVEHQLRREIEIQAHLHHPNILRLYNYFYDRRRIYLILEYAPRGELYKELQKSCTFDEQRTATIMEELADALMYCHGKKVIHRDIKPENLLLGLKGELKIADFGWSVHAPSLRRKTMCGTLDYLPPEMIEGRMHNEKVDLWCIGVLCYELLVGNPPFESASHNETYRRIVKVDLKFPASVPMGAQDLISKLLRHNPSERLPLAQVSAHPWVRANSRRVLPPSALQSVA
Chain of Aurora B/INCENP (Q9NQS7 whole entry partner): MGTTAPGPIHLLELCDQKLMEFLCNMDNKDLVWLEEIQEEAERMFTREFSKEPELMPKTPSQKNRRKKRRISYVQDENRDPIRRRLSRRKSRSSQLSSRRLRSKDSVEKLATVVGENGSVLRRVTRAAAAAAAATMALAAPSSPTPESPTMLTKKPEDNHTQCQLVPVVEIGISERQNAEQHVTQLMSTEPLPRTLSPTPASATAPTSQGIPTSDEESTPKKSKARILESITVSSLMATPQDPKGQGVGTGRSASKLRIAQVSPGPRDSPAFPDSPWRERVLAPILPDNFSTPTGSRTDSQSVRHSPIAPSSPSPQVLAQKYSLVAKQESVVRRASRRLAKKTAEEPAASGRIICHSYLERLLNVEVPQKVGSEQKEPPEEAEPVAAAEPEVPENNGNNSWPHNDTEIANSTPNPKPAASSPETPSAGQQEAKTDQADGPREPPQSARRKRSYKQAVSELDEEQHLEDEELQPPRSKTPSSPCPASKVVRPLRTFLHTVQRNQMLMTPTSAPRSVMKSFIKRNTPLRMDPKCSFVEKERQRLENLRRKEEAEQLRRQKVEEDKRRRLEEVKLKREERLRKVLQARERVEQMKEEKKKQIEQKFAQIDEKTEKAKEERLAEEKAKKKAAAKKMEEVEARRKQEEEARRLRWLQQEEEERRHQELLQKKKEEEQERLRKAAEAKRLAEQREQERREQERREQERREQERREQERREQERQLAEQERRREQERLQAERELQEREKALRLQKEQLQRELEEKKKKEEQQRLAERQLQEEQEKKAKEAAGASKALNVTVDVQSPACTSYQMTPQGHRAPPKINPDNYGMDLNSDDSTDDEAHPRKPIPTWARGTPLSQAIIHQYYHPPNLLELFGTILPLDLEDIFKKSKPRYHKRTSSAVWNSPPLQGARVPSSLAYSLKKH
With `CCNCCCOc1ccc(-c2cccc(S(=O)(=O)C3CC3)c2)c2c1[nH]c1ncc(C)cc12` [Compound 407, 3-(5-(3-(cyclopropylsulfonyl)phenyl)-3-methyl-9H-pyrido[2,3-b]indol-8-yloxy)-N-ethylpropan-1-amine], the IC50 (in general, the concentration that inhibits the measured activity by half) is below 4 nM.

For `Cc1cnc2[nH]c3c(OCCCNCCO)ccc(-c4cccc(S(=O)(=O)C5CC5)c4)c3c2c1` [Compound 408, 2-(3-(5-(3-(cyclopropylsulfonyl)phenyl)-3-methyl-9H-pyrido[2,3-b]indol-8-yloxy)propylamino)ethanol], the IC50 is below 4 nM. The same measure for `CCS(=O)(=O)c1cccc(-c2ccc(OCCCn3cncn3)c3[nH]c4ncc(C)cc4c23)c1` [Compound 409, 8-(3-(1H-1,2,4-triazol-1-yl)propoxy)-5-(3-(ethylsulfonyl)phenyl)-3-methyl-9H-pyrido[2,3-b]indole]: above 13 nM. The same measure for `CCS(=O)(=O)c1cccc(-c2ccc(OCc3ccncc3)c3[nH]c4ncc(C)cc4c23)c1` [Compound 411, 5-(3-(ethylsulfonyl)phenyl)-3-methyl-8-(pyridin-4-ylmethoxy)-9H-pyrido[2,3-b]indole]: 4 to 5.5 nM; for `CCS(=O)(=O)c1cccc(-c2ccc(OCCCc3cccnc3)c3[nH]c4ncc(C)cc4c23)c1` [Compound 414, 5-(3-(ethylsulfonyl)phenyl)-3-methyl-8-(3-(pyridin-3-yl)propoxy)-9H-pyrido[2,3-b]indole]: 8.6 to 13 nM; for `CCS(=O)(=O)c1cccc(-c2ccc(OCCCn3cnnc3)c3[nH]c4ncc(C)cc4c23)c1` [Compound 416, 8-(3-(4H-1,2,4-triazol-4-yl)propoxy)-5-(3-(ethylsulfonyl)phenyl)-3-methyl-9H-pyrido[2,3-b]indole]: 5.6 to 8.5 nM. The same measure for `CCS(=O)(=O)c1cccc(-c2ccc(OCCCn3cccc3)c3[nH]c4ncc(C)cc4c23)c1` [Compound 421, 8-(3-(1H-pyrrol-1-yl)propoxy)-5-(3-(ethylsulfonyl)phenyl)-3-methyl-9H-pyrido[2,3-b]indole]: above 13 nM; for `CCS(=O)(=O)c1cccc(-c2ccc(OCC3CCCCO3)c3[nH]c4ncc(C)cc4c23)c1` (stereo not shown) [Compound 423, 5-(3-(ethylsulfonyl)phenyl)-3-methyl-8-((tetrahydro-2H-pyran-2-yl)methoxy)-9H-pyrido[2,3-b]indole]: 8.6 to 13 nM; for `CCN(CC)CCCOc1ccc(-c2cccc(S(=O)(=O)CC)c2)c2c1[nH]c1ncc(C)cc12` [Compound 425, N,N-diethyl-3-(5-(3-(ethylsulfonyl)phenyl)-3-methyl-9H-pyrido[2,3-b]indol-8-yloxy)propan-1-amine]: 8.6 to 13 nM. Take `CCS(=O)(=O)c1cccc(-c2ccc(OCCCOC)c3[nH]c4ncc(C)cc4c23)c1` [Compound 427, 5-(3-(ethylsulfonyl)phenyl)-8-(3-methoxypropoxy)-3-methyl-9H-pyrido[2,3-b]indole]: the IC50 was 5.6 to 8.5 nM.

In the case of `CCS(=O)(=O)c1cccc(-c2ccc(OCc3cccc(F)n3)c3[nH]c4ncc(C)cc4c23)c1` [Compound 433, 5-(3-(ethylsulfonyl)phenyl)-8-((6-fluoropyridin-2-yl)methoxy)-3-methyl-9H-pyrido[2,3-b]indole], the IC50 is below 4 nM. Consider `CCS(=O)(=O)c1cccc(-c2ccc(OCCCN3CCOCC3)c3[nH]c4ncc(C)cc4c23)c1` [Compound 440, 4-(3-(5-(3-(ethylsulfonyl)phenyl)-3-methyl-9H-pyrido[2,3-b]indol-8-yloxy)propyl)morpholine], for which the IC50 was above 13 nM. Consider `Cc1cnc2[nH]c3c(OCCCN4CCC(OP(=O)(O)O)CC4)ccc(-c4cccc(S(=O)(=O)C5CC5)c4)c3c2c1` [Compound 444, 1-(3-(5-(3-(cyclopropylsulfonyl)phenyl)-3-methyl-9H-pyrido[2,3-b]indol-8-yloxy)propyl)piperidin-4-yl dihydrogen phosphate], for which the IC50 was below 4 nM. For `CCS(=O)(=O)c1cccc(-c2ccc(OCCCN3CCC(COP(=O)(O)O)CC3)c3[nH]c4ncc(C)cc4c23)c1` [Compound 449, (1-(3-(5-(3-(ethylsulfonyl)phenyl)-3-methyl-9H-pyrido[2,3-b]indol-8-yloxy)propyl)piperidin-4-yl)methyl dihydrogen phosphate], the IC50 was below 4 nM.

Regarding `CCS(=O)(=O)c1cccc(-c2cc(C(=O)NC3CCNCC3)c(C)c3[nH]c4ncc(C)cc4c23)c1` [Compound 451, 5-(3-(ethylsulfonyl)phenyl)-3,8-dimethyl-N-(piperidin-4-yl)-9H-pyrido[2,3-b]indole-7-carboxamide], the IC50 was 8.6 to 13 nM. The same measure for `CCS(=O)(=O)c1cccc(-c2cc(C(=O)N3CCC(CCO)CC3)c(C)c3[nH]c4ncc(C)cc4c23)c1` [Compound 454, (5-(3-(ethylsulfonyl)phenyl)-3,8-dimethyl-9H-pyrido[2,3-b]indol-7-yl)(4-(2-hydroxyethyl)piperidin-1-yl)methanone]: 8.6 to 13 nM.

Take `CCS(=O)(=O)c1cccc(-c2cc(C(=O)NC3CCN(CCO)CC3)c(C)c3[nH]c4ncc(C)cc4c23)c1` [Compound 456, 5-(3-(ethylsulfonyl)phenyl)-N-(1-(2-hydroxyethyl)piperidin-4-yl)-3,8-dimethyl-9H-pyrido[2,3-b]indole-7-carboxamide]: the IC50 lay in the range of 5.6 to 8.5 nM. Take `CCS(=O)(=O)c1cccc(-c2c(Cl)cnc3[nH]c4c(OC)cccc4c23)c1` [Compound 464, 3-chloro-4-(3-(ethylsulfonyl)phenyl)-8-methoxy-9H-pyrido[2,3-b]indole]: the IC50 fell in the range of 5.6 to 8.5 nM.

For the compound “(3-chloro-5-(3-(ethylsulfonyl)phenyl)-9H-pyrido[2,3-b]indol-8-ol [Compound 219]”, the IC50 was below 4 nM.

The values above are taken from patent US20090312288A1 (TAKEDA PHARMACEUTICAL COMPANY LIMITED, priority 2008, published 2009).
